According to patent US20250312288A1, “LIPIDS AND LIPID NANOPARTICLE FORMULATIONS” (LONGUIDE BIOPHARMA CORPORATION, priority 2024, published 2025):

Test system: mice
Test: In vivo delivery of FLuc-circ-RNA lipid nanoparticles in mice (IVIS imaging)
Conditions: for IVIS: FLuc-circRNA LNP, IV; for delivery efficiencies on change from mRNA to circular RNA: statement on Table 3, circular RNA LNP vs mRNA LNP
Description: 8.2 Investigation of the Delivery Efficacy of Nucleic Acid Lipid Nanoparticles for FLuc-Circ-mRNA in Mice
Lipid nanoparticles loaded with nucleic acid drugs were prepared according to step 2, replacing FLuc-mRNA with FLuc-circ-RNA (Shanghai Zhiwei Technology Development Co., Ltd.). After formulation, the nanoparticles were administered via intramuscular injection (into the quadriceps femoris muscle of mice), intravenous injection (into the tail vein of mice), intraperitoneal injection, or subcutaneous injection (subcutaneously on the back). Approximately 75 μL was injected per mouse, with a total of 3 mice per group. In vivo imaging (PerkinElmer, IVIS Lumina III) was performed after a certain period of time. Ten to fifteen minutes before imaging, 200 μL of a 15 mg/mL D-Luciferin working solution was injected intraperitoneally, followed by imaging analysis using the in vivo imaging system.

SMILES | IVIS (organ liver) | IVIS (organ lung) | IVIS (organ spleen) | delivery efficiencies on change from mRNA to circular RNA
CCCCCCOC(C)OCCCCCCOC(=O)C(O)CN(CCO)CCCN(CC(O)C(=O)OCCCCCCOC(C)OCCCCCC)CC(O)C(=O)OCCCCCCOC(C)OCCCCCC (stereo not shown) [Compound L0692] | 3.34E+06 | 8.55E+04 | 2.64E+06 | further increased the delivery efficiencies
CCCCCCC(CCCCCC)C(=O)OCCCCCCNC(=O)C(O)CN(CCO)CCCN(CC(O)C(=O)NCCCCCCOC(=O)C(CCCCCC)CCCCCC)CC(O)C(=O)NCCCCCCOC(=O)C(CCCCCC)CCCCCC (stereo not shown) [Compound L0710] | 3.07E+08 | 4.78E+06 | 9.97E+07 | further increased the delivery efficiencies
CCCCCCC(CCCCCC)C(=O)NCCOC(=O)C(O)CN(CCO)CCCN(CC(O)C(=O)OCCNC(=O)C(CCCCCC)CCCCCC)CC(O)C(=O)OCCNC(=O)C(CCCCCC)CCCCCC (stereo not shown) [Compound L0711] |  |  |  | further increased the delivery efficiencies
CCCCCCCCC(CCCCCC)C(=O)NCCOC(=O)C(O)CN(CCO)CCCN(CC(O)C(=O)OCCNC(=O)C(CCCCCC)CCCCCCCC)CC(O)C(=O)OCCNC(=O)C(CCCCCC)CCCCCCCC (stereo not shown) [Compound L0714] |  |  |  | further increased the delivery efficiencies
